# Source: patent publication US20020058077A1, “Cancer chemotherapeutical and chemopreventive agent” (priority 2000, published 2002)
# *1 amine or outer side, *2 acyl side, *3 side chain or, on linkers, in order; H or OH if unused. Where a SMILES comes first, the peptide text is derived from it. Bridges are numbered along the chain shown (N, C = ends). Roman numbers before positions name the chains, in order. [ ]: non-standard residue; d: D form. Actinocin(9to1) = Cc1c2oc3c(C)ccc(C(=O)[*:1])c3nc-2c(C(=O)[*:2])c(N)c1=O; NMeV = CN[C@H](C(=O)O)C(C)C; Sar = CNCC(=O)O
# How the values were obtained:
# CNE1 cells = conditions: for apoptotic cell death in TNF-α treated cells after pretreatment: PDTC 25 μM, Act D 5 μg/ml, CHX 5 μg/ml or NS398 10 μM × 30 min
# Experimental: (§1) TNF-α (final concentration 15 ng/ml) was used as the positive stimulus to promote NF-κB activation in cultured cells.
# Apoptosis was determined by the following assays: (i) cell morphological alterations examined under an inverted microscope, (ii) PARP cleavage determined by western blot, and (iii) TUNEL assay which was analysed using both flow cytometry and confocal microscope (Shen et al., 2000), in both attached and detached cells after various treatments.
# COX-2 [1] = assay: RT-PCR analysis of COX-2 mRNA in TNF-α treated CNE1 cells; conditions: Act D 5 μg/ml × 30 min; TNF-α 15 ng/ml × 6 h
# Experimental: as §1
# RNA extraction was carried out using a total RNA extraction kit (TRIzol, Life Technologies). Briefly, cells were collected by scrapping after various treatments and washed with cold PBS once before they were lysed in the TRIzol reagent. […] Finally the RNA samples were dissolved in DEPC-H2O and quantified (1 A260=40 μg/ml). Five micrograms of total RNA from each sample were subjected to reverse transcription using Superscript II reverse transcriptase (Life Technologies) in a total volume of 50 μl. For PCR, all the amplification reactions were carried out in 20 μl which included 200 pmol of each primers, 200 μM of each dNTPs, and 0.5 units of DyNAzyme II. The PCR was performed for 30 cycles, using a program of 95° C. for 30 sec, 57° C. for 30 sec, and 72° C. for 30 sec, followed by a 10 min extension at 72° C., in a Biometra T-gradient Thermal Cycler. […] The PCR conditions were optimised to achieve exponential amplification in which the PCR product formation is proportional to the starting cDNA.
# COX-2 [2] = assay: COX-2 protein level in TNF-α treated CNE1 cells by western blot; conditions: CHX 5 μg/ml × 30 min; TNF-α 15 ng/ml × 24 h
# Experimental: as §1
# Various cell extracts (cytosolic, nuclear or whole cell) were prepared as described earlier. Equal amounts (30 μg) of protein were separated on SDS-polyacrylamide gel in the Mini-PROTEAN II system (Bio-Rad). After electrophoresis, the protein was transferred onto a Hybond-C nitrocellulose membrane (Amersham) at 4° C. using the Mini Trans-Blot Module (Bio-Rad). The membrane was blocked overnight with 5% nonfat milk in TBST (10 mM Tris-HCl, pH 7.5, 100 mM NaCl, 0.1% Tween 20), and then incubated with various primary antibodies for 2 h at room temperature. After 5 washes with TBST, the membrane was exposed to respective secondary antibodies for 1 h. The blots were detected using the enhanced chemiluminescence method (Pierce).
# NF-κB = NF-κB luciferase reporter gene assay in transfected CNE1 cells; type: cell-based, human; conditions: PDTC 25 μM, Act D 5 μg/ml or CHX 5 μg/ml × 30 min; TNF-α 15 ng/ml × 24 h; order PDTC <Act D <CHX
# Experimental: The pNF-κB-luc vector and the negative control pTAL-luc vector were purchased as part of the Mercury Pathway Profiling Luciferase System from Clontech Laboratories. […] The transient transfection of the above plasmids into cultured CNE1 cells were performed using TransFast™ Transfection Reagent (Promega) according to the manufacturer's protocol. Briefly, when cells reached about 80% confluence in 24-well plates (approximately 10×10^4 cells per well in 0.5 ml culture medium), the growth medium from each well was removed by aspiration. […] After incubated for 1 h at 37° C., 300 μl of prewarmed complete medium was added into each well and incubated for 24 h. Transfected cells were then subjected to various treatments. The luciferase activity was measured in the cellular extracts using a luciferase assay kit (Promega). Following the treatment, the cell lysate was collected from each well after the addition of 1× cell culture lysis reagent (50 μl/well, Promega). The relative light units (RLU) were then determined in a luminometer (Lumi-one, Trans Orchid, Tampa, Fla.) for a total period of 15 sec after a 5 sec delay time.
# PGE2 production = assay: PGE2 level released from CNE1 cells by enzyme immunoassay (EIA); type: cell-based, human
# Experimental: The PGE2 level in the cell culture medium after various treatments was determined using an EIA kit (Cayman) according to protocol from the manufacturer. Each sample was assayed at two dilutions and each dilution in triplets. The results were presented as the fold of increase comparing to that of the control group.
# [3] = Act D 5 μg/ml × 30 min pretreatment, then TNF-α 15 ng/ml × 24 h
Structure (SMILES),PARP cleavage (CNE1 cells; [3]),detached apoptotic cells (CNE1 cells; [3]),apoptotic cell death in TNF-α treated cells after pretreatment (CNE1 cells; then TNF-α 15 ng/ml × 24 h),COX-2 mRNA level (COX-2 [1]),COX-2 protein level (COX-2 [2]),NF-κB dependent transcription (luciferase) (NF-κB),apoptosis induction compared with parthenolide (CNE1 cells; TNF-α treated CNE1 cells),"PGE2 production (PGE2 production; NS398 10 μM × 30 min, TNF-α 15 ng/ml × 24 h)",potency for the inhibition of PGE2 production compared with parthenolide (PGE2 production; TNF-α treated CNE1 cells)
"Cc1c2oc3c(C)ccc(C(=O)N[C@@H]4C(=O)N[C@H](C(C)C)C(=O)N5CCC[C@H]5C(=O)N(C)CC(=O)N(C)[C@@H](C(C)C)C(=O)O[C@@H]4C)c3nc-2c(C(=O)N[C@@H]2C(=O)N[C@H](C(C)C)C(=O)N3CCC[C@H]3C(=O)N(C)CC(=O)N(C)[C@@H](C(C)C)C(=O)O[C@@H]2C)c(N)c1=O [Act D, actinomycin D] (I: T[dV]P[Sar][NMeV] / II: T[dV]P[Sar][NMeV]; ester I:1-I:C, II:1-II:C; linker I:N-II:N via Actinocin(9to1))",complete cleavage,~100%,severe apoptosis,markedly reduced,,,,,
"C[C@@H]1C[C@@H]([C@H](O)CC2CC(=O)NC(=O)C2)C(=O)[C@@H](C)C1 [CHX, cycloheximide]",,,severe apoptosis,,Significant reduction,capable of inhibiting,,,
CS(=O)(=O)Nc1ccc([N+](=O)[O-])cc1OC1CCCCC1 [NS398],,,significantly enhanced,,,,less effective,completely abolished,higher potency
